Experiments:
HeLa cells [1] = assay: MTT cytotoxic assay; assay type: cell-based; conditions: 0.1-20 μM, 72 hours; FIG. 3
Experimental: Human cervical cancer cell lines HeLa are maintained in DMEM (Invitrogen) supplemented with 10% newborn calf serum (Gibco, Life technologies Corporation, New Zealand), 1% penicillin/streptomycin (Invitrogen). Cells are maintained in a humidified atmosphere containing 5% CO2 at 37° C.
4×10^4/ml HeLa cells are seeded in a 96-well plate and preincubated for 24 hours before treatment with Griffipavixanthone (0.1-20 μM). After 72 hours, 10 μl of MTT solution (5 mg/ml) (Sigma Chemical Company, St. Louis, Mo., USA) are added to each well for 4 hours. The resulting crystals are dissolved in DMSO. The controls are native cells treated with medium only. The spectrophotometric absorbance at 570 nm is measured using a microplate reader (Synergy HT, Bio-Tek Instruments Inc., Winooski, Vt., USA). The percentage cytotoxicity is calculated by the formula: Percentage cytotoxicity (cell death)=[1-(absorbance of experimental wells/absorbance of control wells)]×100%.

HeLa cells [2] = assay: Western blot analysis of LC3-I, LC3-II and p62 expression; assay type: cell-based, human; conditions: 0, 1 and 5 μM, 24 hours; FIG. 5
Experimental: 6×10^5/ml HeLa cells are treated with Griffipavixanthone (0, 1 and 5 μM) for 24 hours. Cells are collected and cleavaged by RIPA and PMSF. Proteins are extracted and separated by 12% gel SDS-PAGE, and then are transferred to PVDF. Membranes are blocked with 5% nonfat dry milk in TBST for 0.5 hour. They are incubated and exposed with the respective primary antibodies, testing the content change of protein. The primary antibodies used to detect proteins in autophagy pathway: LC3 (16, 18 kD), p62 (62 kD) and GAPDH (37 kD).

HeLa LC3-GFP cells = assay: Fluorescence microscopy of GFP-LC3 puncta formation (autophagy); assay type: cell-based, human; conditions: 1-20 μM for 24 hours, 10 μM for 6, 12 and 24 hours, FIG. 1, 2
Experimental: LC3, a known autophagy indicator, is used to show Griffipavixanthone's ability to induce autophagy in cancer cells and thus provide anti-cancer property. 1×10^5/ml HeLa LC3-GFP cells are seeded in a 35 mm×10 mm culture dish and preincubated for 24 hours before treatment with griffipavixanthone. HeLa LC3-GFP cells are treated with vehicle (control), 1 μM, 5 μM, 10 μM and 20 μM for 24 hours. After treatment of griffipavixanthone, the medium is removed from the dish and 4% methyl aldehyde with 0.3% triton-100 is added for fastening and permeation. The staining solution DAPI is added. Fluorescence of the bound dyes is analyzed using a laser scanning confocal microscope (FV10i, OlympusCorporation, Japan). […] Griffipavixanthone induces autophagy in cervical cancer cells at concentration and time dependent manner.

[3] = test system: HeLa cells xenograft tumor; assay: Inhibition of tumor growth in HeLa xenograft nude mouse model; assay type: in vivo, nude mice; conditions: intratumor injection 40 ng/kg/day or 80 ng/kg/day once every other day for 18 days; FIG. 6
Experimental: A total of 2×10^6 HeLa cells suspended in 100 μL of saline are inoculated s.c. into the right flank of 4-week-old male nude mice. Drug injections are made once the tumors reach an average volume of about 100 mm^3. Mice are divided randomly into two groups and subjected to intratumor injection of vehicle or Griffipavixanthone (40 ng/kg/day or 80 ng/kg/day) once every other day for 18 days. A total 2 μg/mouse and 4 μg/mouse are given to the two groups of mice in the 18 days treatment. Tumor volume is measured by caliper measurements (V=L×W^2/2). For intratumor injection, Griffipavixanthone is prepared in 0.5% dimethyl sulfoxide, 0.5% tween 80, and 99% PBS. […] The dosage of administered Griffipavixanthone is translated to a human dosage of 3.2 ng/kg/day to 6.4 ng/kg/day with the equation: human equivalent dose=animal dose×animal Km/human Km, where mouse Km factor is 3 and human Km factor is 37 as disclosed in Reagan-Shaw, S., Nihal, M. and Ahmad N., “Dose translation from animal to human studies revisited”, The FASEB Journal, Life Science Forum, disclosure of which is incorporated herein by reference in its entity.

HeLa cells [4] = assay: Flow cytometer (FACS, PI staining) analysis of cell death; assay type: cell-based, human; conditions: 1 and 10 μM, 24 hours; DMEM vs EBSS (serum-free medium); FIG. 4
Experimental: 3×10^5/ml HeLa cells are treated with Griffipavixanthone (1 and 10 μM) for 24 hours. Cells are trypsinized and fixed in ice-cold 100% methanol overnight at 4° C. Cells are washed, incubated with the staining solution (100 μg/ml RNase A and 20 μg/ml PI in Phosphate Buffer Saline (PBS) with 5% NBCS) for 60 minutes, and subjected to fluorescence activated cell sorting (FACS) analysis on a FACScan flowcytometer (BD PharMingen, USA). Data are analyzed using the FlowJo software.

[5] = test system: leukemia cells, lung cancer cells and fibrosarcoma cells; conditions: Tetrahedron Letters 1998, 39: 9103-9106; cited from earlier work

## CC1=CC2c3c(c(O)c(O)c4oc5cc(O)cc(O)c5c(=O)c34)C(c3cc(O)c(O)c4oc5cc(O)cc(O)c5c(=O)c34)C2C(C)(C)C1 (stereo not drawn) [Griffipavixanthone]
HeLa cells [1]
  HeLa cell viability / cytotoxicity (MTT): inhibit HeLa cell lines at concentration dependent manner
HeLa cells [2]
  Autophagosome accumulation (LC3-I, LC3-II, p62 immunoblot): increases autophagosome accumulation and induces autophagy
HeLa LC3-GFP cells
  GFP-LC3 puncta formation (percentage of GFP-LC3 positive cells): increases GFP-LC3 puncta formation at concentration and time dependent manner
[3]
  Tumor growth (tumor volume): growth of tumor is inhibited
HeLa cells [4]
  HeLa cell death (FACS): induces HeLa cell death significantly in serum-free medium at concentration dependent manner
[5]
  In vitro cytotoxicity: high in vitro cytotoxity

Reference: patent US9339488B2, “Anti-cervical cancer compound and method of use thereof” (Hong Kong Baptist University, priority 2013, dated 2016)
